Here are results for one molecule from patent publication US7199130B2, “Substituted 5,6,6a, 11b-tetrahydro-7-oxa-5-aza-benzo[c]fluorene-6-carboxylic acid compounds as NMDA-antagonists” (Gruenenthal GmbH, priority 2001, dated 2007).

What is called ED50 is the dose that gives a 50% effect, or the effect in half of the subjects. A word on the Ki: it is the dissociation constant of the complex between target and ligand, obtained from inhibition or displacement. A low value points to tighter binding.

The test system of assay [1] is formaldehyde-induced nociception. As to the kind of experiment: Formaldehyde test, rat (second phase). The assay is classed as in vivo. The following applies: iv, male Sprague-Dawley rats, second (late) phase of formaldehyde test, pain rate vs vehicle control. As to the method:
The investigations to determine the antinociceptive action of the compounds according to the invention of the formula I were carried by the formaldehyde test on male rats (Sprague-Dawley, 150–170 g). In the formaldehyde test, a distinction is drawn between the first (early) phase (0–15 min after formaldehyde injection) and the second (later) phase (15–60 min after formaldehyde injection) (D. Dubuisson, S. G. Dennis, Pain 4, 161–174 (1977)). […]
A nociceptive reaction was induced in the freely mobile test animals by a single, subcutaneous formaldehyde injection (50 μl, 5%) into the dorsal side of the rear hind paw, the reaction being classed according to one of the following behavioral parameters: lifting and holding up the affected paw (score 1), shaking or twitching (score 2), licking and biting (score 3). The differential behavior induced by the formaldehyde injection was recorded by observing the animals in the late phase of the formaldehyde test and assigned a variable weighting in the evaluation. Normal behavior, in which the animal places an even load on all four paws, was recorded as a score of 0. […] The nociceptive behavior was calculated as a “pain rate” (PR). […] On the basis of the calculated PR values, the effect of the substance was determined as a percentage change relative to the control. […]

Assay [2] concerns the target T1, glycine-binding site of the NMDA receptor channel (Rattus norvegicus, UniProt P35439).
T1 construct: from tissue; host or cells: rat brain cortex and hippocampus membrane homogenate (male Wistar)
As to the kind of experiment: Receptor binding (glycine-binding site of the NMDA receptor channel), displacement of (3H)-MDL 105.519. As to the method:
Receptor Binding (Glycine-Binding Site of the NMDA Receptor Channel)
The investigation for determining the affinity of the compounds according to the invention of the formula I towards the glycine-binding site of the NMDA receptor channel was performed on brain membrane homogenates (homogenate of the cortex and hippocampus area from male rat brain, Wistar strain) [B. M. Baron, B. W. Siegel, B. L. Harrison, R. S. Gross, C. Hawes and P. Towers, Journal of Pharmacology and Experimental Therapeutics, vol. 279, p. 62, 1996].
To this end, the cortex and hippocampus were dissected out of freshly harvested rat brains and homogenized with ice cooling in 5 mmol/l of TRIS-acetate buffer, 0.32 mol/l of sucrose, pH 7.4 (10 ml/g fresh weight) using a Potter homogenizer (Braun/Melsungen, 10 piston strokes at 500 rpm) and then centrifuged for 10 minutes at 1,000 g and 4° C. […] This membrane homogenate was used in the receptor binding test in a quantity of 100 μl per 1 ml batch (0.1 mg of protein/ml in the final batch). […] The level of non-specific binding was determined in the presence of 1 mmol/l of glycine.
In further batches, the compounds according to the invention were added in concentration series and the displacement of the radioactive ligand from its specific binding at the glycine-binding site of the NMDA receptor channel was determined. […]

`O=C(O)C1Nc2cc(Cl)cc(Cl)c2C2c3ccccc3OC12` (stereo not drawn) [Example 1, 1,3-Dichloro-5,6,6a,11b-tetrahydro-7-oxa-5-aza-benzo [c]fluorene-6-carboxylic acid] showed an ED50 in assay [1] of 7.27 mg/kg. Moreover, the “Glycine-binding site of the NMDA receptor channel Displacement” value in assay [2] (10 μmol/l of substance, displacement of (3H)-MDL 105.519 from specific binding, rat brain membranes) was 100%. The molecule also registered an inhibition constant Ki in assay [2] (rat cortex and hippocampus membrane homogenate, ligand 1 nmol/l (3H)-MDL 105.519, converted from IC50 by Cheng-Prussoff, mean of three independent tests) of 53 nM.
